Test results from PMC7939570, “Discovery of potent histone deacetylase inhibitors with modified phenanthridine caps” (Journal of Enzyme Inhibition and Medicinal Chemistry, 2021).

Tests used:
[1] = tested on: U937 cells; test: MTT antiproliferative assay, U937 cells; conditions: U937 cells, MTT, mean of three experiments; for inhibition at 1 µM: Homo sapiens, U-937, read-out: U937 percentage inhibitory rate, 1 µM
[2] = tested on: Hela nucleus extract containing a mixture of HDAC isoforms; test: HDAC enzyme inhibitory assay with Hela nucleus extract; format: biochemical; conditions: 1 µM, mean of three experiments
Protocol: The HDAC enzyme inhibitory activities of synthesised compounds were investigated by utilising Hela nucleus extract containing a mixture of HDAC isoforms. Percentage inhibitory rate was used to determine the activity of tested compounds (Tables 1 and 2). The Fa series compounds were firstly synthesised for the activity screening. […] To investigate whether aromatic linker could improve the inhibitory activities, structural modifications were performed on current molecules.

SMILES | inhibition at 1 µM [1] | HDACs percentage inhibitory rate [2] | U937 percentage inhibitory rate ([1]; 1 µM)
O=C(CCCNC(=O)c1ccc(-c2cc3c(cc2NC(=O)c2ccccc2Cl)OCO3)cc1)NO [Fa-10, 4-{4-[6-(2-Chloro-benzoylamino)-benzo[1,3]dioxol-5-yl]-benzoylamino}-N-Hydroxy-butyramide] | 23 ± 1.23% | 23.41 ± 1.95% | 
CCCc1ccc(C(=O)Nc2cc3c(cc2-c2ccc(C(=O)NCCCC(=O)NO)cc2)OCO3)cc1 [Fa-20, 4-{4-[6–(4-Propyl-benzoylamino)-benzo[1,3]dioxol-5-yl]-benzoylamino}-N-Hydroxy-butyramide] | 12.2 ± 0.24% | 21.14 ± 2.55% | 
O=C(CCCNC(=O)c1ccc(-c2cc3c(cc2NC(=O)c2c(F)cccc2Cl)OCO3)cc1)NO [Fa-21, 4-{4-[6–(2-Chloro-6-fluoro-benzoylamino)-benzo[1,3]dioxol-5-yl]-benzoylamino}-N-Hydroxy-butyramide] | 11.2 ± 1.01% | 15.58 ± 3.25% | 
O=C(NO)c1ccc(CNC(=O)c2ccc(-c3cc4c(cc3NC(=O)c3ccc(C(F)(F)F)cc3)OCO4)cc2)cc1 [Fb-7, 4-({4-[6–(4-Trifluoromethyl-benzoylamino)-benzo[1,3]dioxol-5-yl]-benzoylamino}-methyl)-N-Hydroxy-benzamide] | 84.9 ± 1.68% | 47.03 ± 15.05% | 
Cc1ccccc1C(=O)Nc1cc2c(cc1-c1ccc(C(=O)NCCCC(=O)NO)cc1)OCO2 [Fa-4, 4-{4-[6-(2-Methyl-benzoylamino)-benzo[1,3]dioxol-5-yl]-benzoylamino}-N-Hydroxy-butyramide] | 18.2 ± 2.91% | 13.65 ± 4.04% | 
Cc1ccccc1C(=O)Nc1cc2c(cc1-c1ccc(C(=O)NCc3ccc(C(=O)NO)cc3)cc1)OCO2 [Fb-9, 4-({4-[6–(2-Methyl-benzoylamino)-benzo[1,3]dioxol-5-yl]-benzoylamino}-methyl)-N-Hydroxy-benzamide] | 69.2 ± 3.08% | 35.97 ± 3.07% | 
O=C(CCCNC(=O)c1ccc(-c2cc3c(cc2NC(=O)c2cc(F)ccc2F)OCO3)cc1)NO [Fa-22, 4-{4-[6–(2,5-Difluoro-benzoylamino)-benzo[1,3]dioxol-5-yl]-benzoylamino}-N-Hydroxy-butyramide] | 4.73 ± 0.64% | 24.89 ± 4.89% | 
O=C(CCCNC(=O)c1ccc(-c2cc3c(cc2NC(=O)c2cccc(C(F)(F)F)c2)OCO3)cc1)NO [Fa-9, 4-{4-[6-(3-Trifluoromethyl-benzoylamino)-benzo[1,3]dioxol-5-yl]-benzoylamino}-N-Hydroxy-butyramide] | 20.45 ± 0.05% | 18.92 ± 1.30% | 
O=C(NO)c1ccc(CNC(=O)c2ccc(-c3cc4c(cc3NC(=O)c3cccc(C(F)(F)F)c3)OCO4)cc2)cc1 [Fb-8, 4-({4-[6–(3-Trifluoromethyl-benzoylamino)-benzo[1,3]dioxol-5-yl]-benzoylamino}-methyl)-N-Hydroxy-benzamide] | 78.2 ± 3.05% | 47.09 ± 0.62% | 
O=C(CCCNC(=O)c1ccc(-c2cc3c(cc2NC(=O)c2ccccc2C(F)(F)F)OCO3)cc1)NO [Fa-6, 4-{4-[6-(2-Trifluoromethyl-benzoylamino)-benzo[1,3]dioxol-5-yl]-benzoylamino}-N-Hydroxy-butyramide] | 15 ± 2.47% | 24.88 ± 4.88% | 
O=C(CCCNC(=O)c1ccc(-c2cc3c(cc2NC(=O)c2cccc(Br)c2)OCO3)cc1)NO [Fa-1, 4-{4-[6–(3-Bromo-benzoylamino)-benzo[1,3]dioxol-5-yl]-benzoylamino}-N-Hydroxy-butyramide] | 21 ± 0.55% | 6.63 ± 1.28% | 
O=C(CCCNC(=O)c1ccc(-c2cc3c(cc2NC(=O)c2cccc(F)c2)OCO3)cc1)NO [Fa-5, 4-{4-[6-(3-Fluoro-benzoylamino)-benzo[1,3]dioxol-5-yl]-benzoylamino}-N-Hydroxy-butyramide] | 19.9 ± 1.33% |  | 33.95 ± 1.70%
